Data as given in patent publication US20130303532A1, “IMIDAZOPYRAZINES FOR USE AS MPS-1 AND TKK INHIBITORS IN THE TREATMENT HYPERPROLIFERATIVE DISORDERS” (BAYER INTELLECTUAL PROPERTY GmbH, priority 2010, published 2013).

Each molecule was assayed against T1, human kinase Mps-1 (Homo sapiens, UniProt P33981) (assay: Mps-1 kinase assay (TR-FRET)). Settings: Mps1 IC50 [nM], N-terminally GST-tagged human full length recombinant Mps-1; 10 μM ATP; 1 μM biotinylated peptide substrate; 60 min at 22° C.
T1 construct: N-terminally GST-tagged human full length recombinant Mps-1 kinase; GST (N); purchased Invitrogen, Karslruhe, Germany PV4071
T1 sequence (P33981 1-857): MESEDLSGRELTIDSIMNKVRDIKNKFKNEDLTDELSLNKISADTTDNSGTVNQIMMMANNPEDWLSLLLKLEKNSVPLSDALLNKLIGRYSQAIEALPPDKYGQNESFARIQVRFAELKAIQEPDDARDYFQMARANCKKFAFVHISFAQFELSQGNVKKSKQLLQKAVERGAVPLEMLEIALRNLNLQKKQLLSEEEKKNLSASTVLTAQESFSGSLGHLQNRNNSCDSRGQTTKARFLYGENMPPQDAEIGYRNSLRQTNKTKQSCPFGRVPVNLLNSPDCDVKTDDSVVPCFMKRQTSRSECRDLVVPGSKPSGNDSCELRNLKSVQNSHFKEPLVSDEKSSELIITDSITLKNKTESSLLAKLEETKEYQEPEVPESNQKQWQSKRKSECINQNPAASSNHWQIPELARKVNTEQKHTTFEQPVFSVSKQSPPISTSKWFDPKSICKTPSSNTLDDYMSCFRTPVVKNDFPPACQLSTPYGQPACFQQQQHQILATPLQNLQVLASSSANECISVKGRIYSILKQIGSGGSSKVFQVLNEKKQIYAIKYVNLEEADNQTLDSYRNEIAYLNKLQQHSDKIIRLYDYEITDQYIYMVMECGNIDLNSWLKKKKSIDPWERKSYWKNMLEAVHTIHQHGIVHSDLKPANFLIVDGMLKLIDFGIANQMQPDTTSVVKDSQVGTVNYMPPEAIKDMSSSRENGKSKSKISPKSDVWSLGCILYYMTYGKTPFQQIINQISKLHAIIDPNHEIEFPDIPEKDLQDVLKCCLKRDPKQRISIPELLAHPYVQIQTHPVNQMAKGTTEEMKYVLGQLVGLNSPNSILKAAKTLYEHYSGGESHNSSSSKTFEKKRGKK
Type: biochemical
Molecule `Cn1cc(CNc2nccn3c(-c4ccc(C(=O)NC5CC5)c(Cl)c4)cnc23)cn1` [Example 7-62, 2-chloro-N-cyclopropyl-4-(8-{[(1-methyl-1H-pyrazol-4-yl)methyl]amino}imi-dazo[1,2-a]pyrazin-3-yl)benzamide] has an IC50 of 308 nM. `Cc1cc(-c2cnc3c(NC[C@@H](O)CO)nccn23)ccc1C(=O)NC1CC1` [Example 7-125, N-cyclopropyl-4-{8-[(2,3-dihydroxypropyl)amino]imi-dazo[1,2-a]pyrazin-3-yl}-2-methylbenzamide] showed an IC50 of 361 nM. Work on `Cc1cc(-c2cnc3c(NCc4ccco4)nccn23)ccc1C(=O)NC1CC1` [Example 7-110, N-cyclopropyl-4-{8-[(furan-2-ylmethyl)amino]imi-dazo[1,2-a]pyrazin-3-yl}-2-methylbenzamide] yielded an IC50 of 28.1 nM. Molecule `CC(C)CNc1nccn2c(-c3ccc(C(=O)NC4CC4)c(O)c3)cnc12` [Example 7-80, N-cyclopropyl-2-hydroxy-4-{8-[(2-methylpropyl)amino]imi-dazo[1,2-a]pyrazin-3-yl}benzamide] has an IC50 of 15.5 nM. Work on `CC(O)CNc1nccn2c(-c3ccc(C(=O)NC4CC4)c(O)c3)cnc12` (stereo not shown) [Example 7-84, N-cyclopropyl-2-hydroxy-4-{8-[(2-hydroxypropyl)amino]imi-dazo[1,2-a]pyrazin-3-yl}benzamide] yielded an IC50 of 96.9 nM. In the case of `NC(=O)CCNc1nccn2c(-c3ccc(C(=O)NC4CC4)c(Cl)c3)cnc12` [Example 7-54, 4-{8-[(3-amino-3-oxopropyl)amino]imi-dazo[1,2-a]pyrazin-3-yl}-2-chloro-N-cyclopropylbenzamide], the IC50 is reported as 4870 nM. In the case of `O=C(NC1CC1)c1ccc(-c2cnc3c(NCc4ccc(Cl)s4)nccn23)cc1O` [Example 7-88, 4-(8-{[(5-chlorothiophen-2-yl)methyl]amino}imi-dazo[1,2-a]pyrazin-3-yl)-N-cyclopropyl-2-hydroxybenzamide], the IC50 is reported as 91.3 nM. `Cc1ccc(CNc2nccn3c(-c4ccc(C(=O)NC5CC5)cc4)cnc23)cc1` [Example 7-22, N-cyclopropyl-4-{8-[(4-methylbenzyl)amino]imi-dazo[1,2-a]pyrazin-3-yl}benzamide] gave an IC50 of 21 nM. Molecule `COCCCNc1nccn2c(-c3ccc(C(=O)NC4CC4)c(C)c3)cnc12` [Example 7-116, N-cyclopropyl-4-{8-[(3-methoxypropyl)amino]imi-dazo[1,2-a]pyrazin-3-yl}-2-methylbenzamide] has an IC50 of 141 nM. `O=C(NC1CC1)c1ccc(-c2cnc3c(NCC(F)F)nccn23)cc1Cl` [Example 7-59, 2-chloro-N-cyclopropyl-4-{8-[(2,2-difluoroethyl)amino]imi-dazo[1,2-a]pyrazin-3-yl}benzamide] gave an IC50 of 239 nM. Molecule `CC(C)CNc1nccn2c(-c3ccc(C(=O)NC4CC4)c(Cl)c3)cnc12` [Example 7-51, 2-chloro-N-cyclopropyl-4-{8-[(2-methylpropyl)amino]imi-dazo[1,2-a]pyrazin-3-yl}benzamide] has an IC50 of 15.7 nM. `Cc1cccc(CNc2nccn3c(-c4ccc(C(=O)NC5CC5)cc4)cnc23)c1` [Example 7-29, N-cyclopropyl-4-{8-[(3-methylbenzyl)amino]imi-dazo[1,2-a]pyrazin-3-yl}benzamide] gave an IC50 of 100 nM. `Cc1cc(-c2cnc3c(NCCO)nccn23)ccc1C(=O)NC1CC1` [Example 7-91, N-cyclopropyl-4-{8-[(2-hydroxyethyl)amino]imi-dazo[1,2-a]pyrazin-3-yl}-2-methylbenzamide] was tested, and the IC50 was 363 nM. `Cc1cc(-c2cnc3c(NCc4ccccc4F)nccn23)ccc1C(=O)NC1CC1` [Example 7-97, N-cyclopropyl-4-{8-[(2-fluorobenzyl)amino]imi-dazo[1,2-a]pyrazin-3-yl}-2-methylbenzamide] was tested, and the IC50 was 31.6 nM. With `O=C(NC1CC1)c1ccc(-c2cnc3c(NCCCN4CCCC4=O)nccn23)cc1` [Example 7-28, N-cyclopropyl-4-(8-{[3-(2-oxopyrrolidin-1-yl)propyl]amino}imi-dazo[1,2-a]pyrazin-3-yl)benzamide] the IC50 was 1270 nM. `O=C(NC1CC1)c1ccc(-c2cnc3c(NCC(O)C(F)(F)F)nccn23)cc1O` (stereo not shown) [Example 7-82, N-cyclopropyl-2-hydroxy-4-{8-[(3,3,3-trifluoro-2-hydroxypropyl)amino]imi-dazo[1,2-a]pyrazin-3-yl}benzamide] showed an IC50 of 56.7 nM. `Cc1cc(-c2cnc3c(NCc4cccs4)nccn23)ccc1C(=O)NC1CC1` [Example 7-102, N-cyclopropyl-2-methyl-4-{8-[(thiophen-2-ylmethyl)amino]imi-dazo[1,2-a]pyrazin-3-yl}benzamide] was tested, and the IC50 was 18.7 nM. With `O=C(NC1CC1)c1ccc(-c2cnc3c(NCC(F)(F)C(F)(F)F)nccn23)cc1Cl` [Example 7-53, 2-chloro-N-cyclopropyl-4-{8-[(2,2,3,3,3-pentafluoropropyl)amino]imi-dazo[1,2-a]pyrazin-3-yl}benzamide] the IC50 was 106 nM. For `O=C(NC1CC1)c1ccc(-c2cnc3c(NCc4ccccc4F)nccn23)cc1` [Example 4-3, N-cyclopropyl-4-{8-[(2-fluorobenzyl)amino]imi-dazo[1,2-a]pyrazin-3-yl}benzamide], the IC50 was 11 nM.

Same assay, conditions: N-terminally GST-tagged human full length recombinant Mps-1; 10 μM ATP; 1 μM biotinylated peptide substrate; 60 min at 22° C.; read-out: Mps1 IC50
`O=C(NC1CC1)c1ccc(-c2cnc3c(NCCc4cccs4)nccn23)cc1` [Example 7-21, N-cyclopropyl-4-(8-{[2-(thiophen-2-yl)ethyl]ami-no}imidazo[1,2-a]pyrazin-3-yl)benzamide] was tested, and the IC50 was 42.3 nM. In the case of `CCCNc1nccn2c(-c3ccc(C(=O)NC4CC4)c(C)c3)cnc12` [Example 7-90, N-cyclopropyl-2-methyl-4-[8-(propylamino)imidazo[1,2-a]pyrazin-3-yl]benzamide], the IC50 is reported as 29.7 nM. `CC(C)(O)CNc1nccn2c(-c3ccc(C(=O)NC4CC4)cc3)cnc12` [Example 3-2, N-cyclopropyl-4-{8-[(2-hydroxy-2-methylpropyl)amino]imidazo[1,2-a]pyrazin-3-yl}benzamide] gave an IC50 of 92.7 nM. With `O=C(NC1CC1)c1ccc(-c2cnc3c(NCC4CCCO4)nccn23)cc1Cl` (stereo not shown) [Example 7-34, 2-chloro-N-cyclopropyl-4-{8-[(tetrahydrofuran-2-ylmethyl)amino]imidazo[1,2-a]pyrazin-3-yl}benzamide] the IC50 was 211 nM. `O=C(NC1CC1)c1ccc(-c2cnc3c(NCCN4CCOCC4)nccn23)cc1` [Example 7-4, N-cyclopropyl-4-(8-{[2-(morpholin-4-yl)ethyl]amino}imidazo[1,2-a]pyrazin-3-yl)benzamide] was tested, and the IC50 was 341 nM. Work on `CS(=O)(=O)CCCNc1nccn2c(-c3ccc(C(=O)NC4CC4)c(Cl)c3)cnc12` [Example 7-66, 2-chloro-N-cyclopropyl-4-(8-{[3-(methylsulfonyl)propyl]ami-no}imidazo[1,2-a]pyrazin-3-yl)benzamide] yielded an IC50 of 519 nM. For `COC(=O)CCNc1nccn2c(-c3ccc(C(=O)NC4CC4)cc3)cnc12` [Example 4-6, methyl N-{3-[4-(cyclopropylcarbamoyl)phen-yl]imidazo[1,2-a]pyrazin-8-yl}-beta-alaninate], the IC50 was 74.9 nM. For `Cc1cc(-c2cnc3c(NCC4CC4)nccn23)ccc1C(=O)NC1CC1` [Example 7-107, N-cyclopropyl-4-{8-[(cyclopropylmethyl)ami-no]imidazo[1,2-a]pyrazin-3-yl}-2-methylbenzamide], the IC50 was 18.8 nM. `O=C(NC1CC1)c1ccc(-c2cnc3c(NCc4ccccc4)nccn23)cc1O` [Example 7-75, 4-[8-(benzylamino)imidazo[1,2-a]pyrazin-3-yl]-N-cyclopropyl-2-hydroxybenzamide] gave an IC50 of 2030 nM.
